# Assay results taken from patent US20060287320A1, “Preparation of thioarabinofuranosyl compounds and use thereof” (Southern Research Institute, priority 1998, published 2006).
# Tests used:
# CAK1-1 Renal = assay: In vitro IC50, 72 hour exposure, Natural Red assay; assay type: cell-based; conditions: read-out: IC50 Molar Values
# Method: (§1) EXAMPLE 3 The following in vitro tests were carried out.
# (§2) The above tests were carried out with a 72 hour exposure to the compound using Natural Red assay for all cell lines except SK-MEL 28 which was done with SRB assay.
# DLD-1 Colon = assay: In vitro IC50, 72 hour exposure, Natural Red assay; assay type: cell-based; conditions: read-out: IC50 Molar Values
# Method: as §1, §2
# LOX IMV1 Melanoma = assay: In vitro IC50, 72 hour exposure, Natural Red assay; assay type: cell-based; conditions: read-out: IC50 Molar Values
# Method: as §1, §2
# NC1-H23 Lung = assay: In vitro IC50, 72 hour exposure, Natural Red assay; assay type: cell-based; conditions: read-out: IC50 Molar Values
# Method: as §1, §2
# PC-3 Prostate = assay: In vitro IC50, 72 hour exposure, Natural Red assay; assay type: cell-based; conditions: read-out: IC50 Molar Values
# Method: as §1, §2
# SNB-7 (CNS) = assay: In vitro IC50, 72 hour exposure, Natural Red assay; assay type: cell-based; conditions: read-out: IC50 Molar Values
# Method: as §1, §2
# ZR-75-1 Mammary = assay: In vitro IC50, 72 hour exposure, Natural Red assay; assay type: cell-based; conditions: read-out: IC50 Molar Values
# Method: as §1, §2
# SK-MEL 28 Melanoma = assay: In vitro IC50, 72 hour exposure, SRB assay; assay type: cell-based; conditions: read-out: IC50 Molar Values
# Method: as §1, §2
# SC CAKI-1 Renal Tumor = assay: Response of SC CAKI-1 Renal Tumor to Treatment; assay type: in vivo; conditions: Q 4H × 3 day 7-15
# Method: (§3) The following in vivo tests were carried out to illustrate the effectiveness of the compounds of the present invention.
# SC HCT-116 Colon Tumor = assay: Response of SC HCT-116 Colon Tumor to Treatment; assay type: in vivo; conditions: Q 4H × 3 day 6-14
# Method: as §3
# [1] = Phosphorylation in cell-free CEM extracts, wild-type; assay type: biochemical; conditions: wild-type CEM cell extract; 1 μm substrate
# Method: (§4) The number in parentheses is the number of experiments performed. […] At various times after the initiation of the experiment, an aliquot of each reaction volume was removed and placed on DE-81 filters. The filters were washed with 1 mM ammonium formate and ethanol, and the amount of radioactivity on each filter was determined. […] This assay was verified by HPLC.
# [2] = Phosphorylation in cell-free CEM extracts, araC-resistant; assay type: biochemical; conditions: for Percent of wild-type: phosphorylation in araC-resistant vs wild-type CEM extract
# Method: as §4
# CEM cells [3] = assay: Complete metabolism of dCyd, T-dCyd, araC and T-araC in CEM cells; assay type: cell-based; conditions: 100 nM, incubation 1 hour
# Method: The complete metabolism of each compound was determined: The medium was analyzed for the original compound, its deaminated form using reverse phase HPLC, and H20; the acid-soluble extract was analyzed by SAX HPLC for phosphorylated metabolites; and the incorporation of radioactivity into acid-precipitable material (DNA) was determined.
# CEM cells [4] = assay: Effect of F-dUrd on metabolism (deamination) in CEM cells; assay type: cell-based; conditions: 100 nM
# Method: The complete metabolism of each compound was determined as described in the legend to Table 12, and the percent of deaminated metabolites for each compound was determined.
# [5] = test system: DNA synthesis in CEM cells; assay: Effect on DNA synthesis ([3H]dThd incorporation) in CEM cells; assay type: cell-based; conditions: 150 nM, average of two experiments
# Method: (§5) Radiolabeled precursors of DNA [^3H]dThd, RNA ([^3H]Urd), or protein ([^3H]leucine) were added to each treatment 30 minutes after the addition of each compound. Samples were taken 1, 2, 3 and 4 hours after the addition of radiolabeled precursors, and the incorporation of radioactivity into RNA, DNA, or protein were determined as described (Parker et al, Biochem. Pharmacol. 55: 1673-1681, 1998). Each number represents the average of two experiments.
# [6] = test system: RNA synthesis in CEM cells; assay: Effect on RNA synthesis ([3H]Urd incorporation) in CEM cells; assay type: cell-based; conditions: 150 nM, average of two experiments
# Method: as §5
# [7] = test system: protein synthesis in CEM cells; assay: Effect on protein synthesis ([3H]leucine incorporation) in CEM cells; assay type: cell-based; conditions: 150 nM, average of two experiments
# Method: as §5
# CEM cells (wild-type) [8] = assay: Inhibition of CEM cell growth, wild-type; conditions: read-out: IC50 (nM) Wild-type; wild-type CEM cells; cell numbers by Coulter Counter; mean and standard deviation from 3 experiments
# Method: (§7) CEM cells were incubated with various concentrations of each compound and the effect on. cell numbers was determined using a Coulter Counter. The IC50 was determined from a plot of the percent of control growth versus drug concentration. The data presented are the mean and standard deviation from 3 separate experiments.
# araC-resistant CEM cells [9] = assay: Inhibition of CEM cell growth, araC-resistant; conditions: read-out: IC50 (nM) araC-resistant; araC-resistant CEM cells; cell numbers by Coulter Counter; mean and standard deviation from 3 experiments
# Method: as §7
# CEM cells [10] = assay: Initial half-life of triphosphates in CEM cells; assay type: cell-based; conditions: CEM cells after 1 hour with 100 nM radiolabeled nucleoside, then fresh medium; 5′-triphosphate peak
# Method: Samples were collected at various times after the cells were resuspended in fresh medium, and the amount of radioactivity in the 5'-triphosphate peak was determined using SAX HPLC. The data presented are the mean and standard deviation from 3 separate experiments.
# CEM cells [11] = assay: Retention of araCTP and T-araCTP in CEM cells (FIG. 2); assay type: cell-based; conditions: CEM cells, 1 hour with 5 nM [5-3H]araC
# Method: […]. Samples were collected at various times after the cells were resuspended in fresh medium, and the amount of radioactivity in the 5′-triphosphate peak was determined using SAX HPLC. In this experiment there was 0.639 pmoles araCTP/10^6 cells and 0.246 pmoles of T-araCTP after the 1 hour incubation with radiolabeled compound.
# CEM cells (wild-type) [12] = assay: Metabolism of dCyd and analogs in wild-type CEM cells; assay type: cell-based; conditions: WT CEM cells; 100 nM; incubation time 0.25 hours
# Method: (§6) The radioactivity in the 5′-triphosphate peak and the incorporation of radioactivity in the acid-insoluble fraction (DNA) was determined.
# araC-resistant CEM cells [13] = assay: Metabolism of dCyd and analogs in araC-resistant CEM cells; assay type: cell-based; conditions: 100 nM, incubation time 0.25 hours
# Method: as §6
structure (smiles),measurement,setting,value
"Nc1ccn([C@@H]2O[C@H](CO)[C@@H](O)[C@@H]2O)c(=O)n1 [araC, cytosine arabinoside]",IC50,CAK1-1 Renal,600 nM
same,IC50,DLD-1 Colon,5000 nM
same,IC50,LOX IMV1 Melanoma,1000 nM
same,IC50,NC1-H23 Lung,300 nM
same,IC50,PC-3 Prostate,5000 nM
same,IC50,SNB-7 (CNS),200 nM
same,IC50,ZR-75-1 Mammary,400 nM
same,IC50,SK-MEL 28 Melanoma,2000 nM
same,Days Delay (T − C),SC CAKI-1 Renal Tumor; 13.3 Mg/Kg IP,11.0 days
same,Days to 3 Doubling,SC CAKI-1 Renal Tumor; 13.3 Mg/Kg IP,20.5 days
same,Non-Specific Deaths/Total,SC CAKI-1 Renal Tumor; 13.3 Mg/Kg IP,0/6
same,Tumor Free Surv/Total,SC CAKI-1 Renal Tumor; 13.3 Mg/Kg IP,0/6
same,Tumor Regression Number of Complete,SC CAKI-1 Renal Tumor; 13.3 Mg/Kg IP,0
same,Tumor Regression Number of Partial,SC CAKI-1 Renal Tumor; 13.3 Mg/Kg IP,0
same,Days Delay (T − C),SC CAKI-1 Renal Tumor; 20 Mg/Kg IP,6.2 days
same,Days to 3 Doubling,SC CAKI-1 Renal Tumor; 20 Mg/Kg IP,15.7 days
same,Non-Specific Deaths/Total,SC CAKI-1 Renal Tumor; 20 Mg/Kg IP,5/6
same,Toxicity remark under Days Delay (T − C),SC CAKI-1 Renal Tumor; 20 Mg/Kg IP,(Toxic)
same,Tumor Free Surv/Total,SC CAKI-1 Renal Tumor; 20 Mg/Kg IP,0/6
same,Tumor Regression Number of Complete,SC CAKI-1 Renal Tumor; 20 Mg/Kg IP,0
same,Tumor Regression Number of Partial,SC CAKI-1 Renal Tumor; 20 Mg/Kg IP,0
same,Days Delay (T − C),SC CAKI-1 Renal Tumor; 30 Mg/Kg IP,16.2 days
same,Days to 3 Doubling,SC CAKI-1 Renal Tumor; 30 Mg/Kg IP,25.7 days
same,Non-Specific Deaths/Total,SC CAKI-1 Renal Tumor; 30 Mg/Kg IP,5/6
same,Toxicity remark under Days Delay (T − C),SC CAKI-1 Renal Tumor; 30 Mg/Kg IP,(Toxic)
same,Tumor Free Surv/Total,SC CAKI-1 Renal Tumor; 30 Mg/Kg IP,0/6
same,Tumor Regression Number of Complete,SC CAKI-1 Renal Tumor; 30 Mg/Kg IP,0
same,Tumor Regression Number of Partial,SC CAKI-1 Renal Tumor; 30 Mg/Kg IP,0
same,Days Delay (T − C),SC HCT-116 Colon Tumor; 9 Mg/Kg IP,2.0 days
same,Days to 2 Doubling,SC HCT-116 Colon Tumor; 9 Mg/Kg IP,10.9 days
same,Non-Specific Deaths/Total,SC HCT-116 Colon Tumor; 9 Mg/Kg IP,0/6
same,Tumor Free Surv/Total,SC HCT-116 Colon Tumor; 9 Mg/Kg IP,0/6
same,Tumor Regression Number of Complete,SC HCT-116 Colon Tumor; 9 Mg/Kg IP,0
same,Tumor Regression Number of Partial,SC HCT-116 Colon Tumor; 9 Mg/Kg IP,0
same,Days Delay (T − C),SC HCT-116 Colon Tumor; 13.3 Mg/Kg IP,3.3 days
same,Days to 2 Doubling,SC HCT-116 Colon Tumor; 13.3 Mg/Kg IP,12.2 days
same,Non-Specific Deaths/Total,SC HCT-116 Colon Tumor; 13.3 Mg/Kg IP,0/6
same,Tumor Free Surv/Total,SC HCT-116 Colon Tumor; 13.3 Mg/Kg IP,0/6
same,Tumor Regression Number of Complete,SC HCT-116 Colon Tumor; 13.3 Mg/Kg IP,0
same,Tumor Regression Number of Partial,SC HCT-116 Colon Tumor; 13.3 Mg/Kg IP,0
same,"Phosphorylation, Wild-type",[1],94 pmoles/mg protein/minute
same,"Phosphorylation, araC-resistant CEM cells","[2]; araC-resistant CEM cell extract, 1 μm substrate",1.2 pmoles/mg protein/minute
same,Percent of wild-type,[2],1.3% of wild-type
same,DNA (percent of total),CEM cells [3],0.4% of total
same,Deaminated Compound (percent of total),CEM cells [3],0% of total
same,H20 (percent of total),CEM cells [3],0% of total
same,Original Compound (percent of total),CEM cells [3],87% of total
same,nucleoside-TP (percent of total),CEM cells [3],13% of total
same,Percent Deamination,"CEM cells [4]; F-dUrd 0 μM, incubation time 8 hours",0%
same,Percent Deamination,"CEM cells [4]; F-dUrd 10 μM, incubation time 8 hours",10%
same,"DNA synthesis, Percent of control",[5],8% of control
same,"RNA synthesis, Percent of control",[6],96% of control
same,"protein synthesis, Percent of control",[7],96% of control
same,IC50,CEM cells (wild-type) [8],6 ± 3 nM
same,IC50,araC-resistant CEM cells [9],800 ± 400 nM
Nc1ccn([C@@H]2O[C@H](COP(=O)(O)OP(=O)(O)OP(=O)(O)O)[C@@H](O)[C@@H]2O)c(=O)n1 [araCTP],"Initial Half-Life, Hours (SD)",CEM cells [10],5.31 ± 0.31 h
same,araCTP after the 1 hour incubation,CEM cells [11],0.639 pmoles/10^6 cells
Nc1ccn([C@H]2C[C@H](O)[C@@H](COP(=O)(O)OP(=O)(O)OP(=O)(O)O)O2)c(=O)n1 [dCTP],"Initial Half-Life, Hours (SD)",CEM cells [10],0.94 ± 0.16 h
"Nc1ccn([C@H]2C[C@H](O)[C@@H](CO)O2)c(=O)n1 [dCyd, 2′-deoxycytidine]",DNA,CEM cells (wild-type) [12],1.19 pmoles/10^6 cells
same,Total,CEM cells (wild-type) [12],3.46 pmoles/10^6 cells
same,DNA,araC-resistant CEM cells [13],0.011 pmoles/10^6 cells
same,DNA (percent of WT),araC-resistant CEM cells [13],0.89% of WT
same,Total,araC-resistant CEM cells [13],0.032 pmoles/10^6 cells
same,Total (percent of WT),araC-resistant CEM cells [13],0.91% of WT
same,"Phosphorylation, Wild-type",[1],240 ± 33 pmoles/mg protein/minute
same,Percent of wild-type,[2],1.5% of wild-type
same,DNA (percent of total),CEM cells [3],3% of total
same,Original Compound (percent of total),CEM cells [3],38% of total
same,Percent Deamination,"CEM cells [4]; F-dUrd 0 μM, incubation time 1 hour",32%
same,Percent Deamination,"CEM cells [4]; F-dUrd 10 μM, incubation time 1 hour",22%
